This is an account of results in paper PMC2852246 (Journal of nuclear medicine : official publication, Society …, 2010).

Several values for one entry are separate records, joined by “and”; a condition that tells them apart may be missing. Equal values may be shown once. Read-outs that look alike come from different tables or passages of the source.

The conditions of data set [1]: single dose of 10 mg, eight human volunteers; cited from earlier work.
For data set [2] the following is noted: determined by Health Canada; cited from earlier work.
For data set [3] the following is noted: cited from earlier work.
The conditions of data set [4]: earlier study of 106 subjects referred for potential kidney donation; cited from earlier work.
The conditions of data set [5]: 106 subjects referred for potential kidney donation; cited from earlier work.
The conditions of data set [6]: cited from earlier work. The source holds these as a separate data set.
Data set [7] is described as follows: Plasma protein binding by ultracentrifugation. Type of data set: in vitro ADME, human. Particulars: healthy volunteers, mean ± SD.
A short description of data set [8]: Percentage uptake in erythrocytes. The data set is classed as in vitro ADME, human. Conditions: healthy volunteers, no correction for trapped plasma, mean ± SD.
Data set [9] in a line: Percentage injected dose in the urine of healthy volunteers. Type of data set: in vivo, human.
Data set [10] can be described thus: Renal imaging and renogram parameters. The data set is classed as in vivo, human.
Setting [11] is: cortical (parenchymal) region of interest, left kidney, n = 9.
[12] abbreviates: cortical (parenchymal) region of interest, right kidney, n = 9.
Setting [13] is: whole-kidney region of interest, relative uptake, n = 9, mean (SD).

As for `O=C(O)CN(CC(=O)O)CC(=O)O` [NTA, Nitrilotriacetic acid], the “adverse effects after ingestion” value in [1] is given as “No adverse effects”. Also, the “acceptable daily intake in drinking water” value in data set [2] is reported as 10 μg/kg of body weight per day.
`O=C([O-])CN(CCN(CC(=O)[O-])CC(=O)[O-])CCN(CC(=O)[O-])CC(=O)[O-].[99Tc+4]` [^99mTc-DTPA, ^99mTc-diethyltriaminepentaacetic acid]: the extraction fraction in [3] was 20%.
For `O=C([O-])CN=C([O-])CN=C([O-])CN=C([O-])C[S-].[O-2].[Tc+4]` [^99mTc-MAG3, ^99mTc-mercaptoacetyltriglycine], the “cortical 20 min/max” value in [4] is listed as 0.19. In addition, the camera-based clearance in data set [5] was 321 ± 69 mL/min/1.73 m^2. The extraction fraction in [3] was 40%-60%. Moreover, in data set [6], the “clearance as percentage of the clearance of 131I-OIH” value is on record as 50%-60%. Moreover, the “plasma clearance as percentage of the 131I-OIH clearance” value in data set [6] (multiple studies) was 50–60%.
Compound `O=C(O)CNC(=O)c1ccccc1[131I]` [^131I-OIH, ^131I ortho-iodohippuran] returned a plasma protein binding in data set [7] of 75 ± 3%. The compound further registered a red cell uptake in data set [8] of 17 ± 5%. Besides, the “percent injected dose in the urine at 30 min” value in data set [9] (30 min after injection) worked out at 69 ± 11%. The “percent injected dose in the urine at 180 min (3 h)” value in data set [9] (180 min after injection) was 91 ± 6%. Moreover, in data set [10] (setting [11]), the “Left cortical TTP” value turned out to be 2.46 ± 0.73 min and the “Left cortical TTP (min)” value is 2.46 (0.73) min. For the same compound, in data set [10] (setting [12]), the “Right cortical TTP” value is 1.98 ± 0.60 min and the “Right cortical TTP (min)” value is 1.98 (0.6) min. Further, in data set [10] (healthy volunteers, kidney side not specified), the “cortical 20 min/max” value is reported as 0.10. The “Left kidney 20 min/max” value in [10] (whole-kidney region of interest, 20 min-to-maximum count ratio, n = 9, mean (SD)) was 0.11 (0.03). The “Right kidney TTP (min)” value in data set [10] (whole-kidney region of interest, n = 9, mean (SD)) was 2.8 (1.6) min. Further, in data set [10] (setting [13]), the “Left kidney Uptake %” value is 49.0 ± 4.1% and 49.0 (4.1) %; the “Right kidney Uptake %” value is 51.0 (4.1) %. For the same compound, the “Left kidney TTP (min)” value in data set [10] (whole-kidney region of interest, time to peak of renogram, n = 9, mean (SD)) is given as 2.6 (0.6) min. The mean plasma clearance in data set [6] (earlier study of healthy volunteers) is 530 mL/min.
